Measured values from patent publication US20250287947A1, “BIOCIDES AND ADHESIVE BINDING THEREOF” (EBERHARD KARLS UNIVERSITÄT TÜBINGEN MEDIZINISCHE FAKULTÄT, priority 2022, published 2025).

How the values were obtained:
[1] = Influence of temperature on the state of matter of Py-C12 free base at different concentrations in water (Example 4); assay type: physicochemical; set-up: key: X: liquid; o: solid
Experimental: 5-N-carboxamido-2-pyrrolidone-N-n-dodecyl propane-1,3-diamine (Py-C12) free base at concentrations of 1% (w/v), 2.5% (w/V), 5% (w/V), 10% (w/V), 20% (w/), 30% (W/), 40% (w/V) were incubated at temperatures between 36° C. and 50° C. (see table 4).

[2] = system: β-galactosidase-expressing E. coli strain; test: Wash resistance and biocidal activity of Py-C12 treated cotton textile (Example 6); assay type: cell-based; details: treated with 1% (w/v) pH 7.0, E. coli 3 days at 37° C.
Experimental: Round sterile cotton textile samples were treated with a liquid Py-C12 solution (1% (w/v) in water; pH 7.0) followed by intensive washing steps. For controls, samples were treated with water instead of Py-C12.
For testing wash resistance in an aqueous system samples were incubated in water for 20 h at 50° C. and then washed 16 times with water at 37° C. for 5 to 10 minutes each time.
For testing wash resistance in an alcoholic/acidic system, samples were washed 8 times with 2-propanol/1 mN HCl solution and 8 times with water in total.
After all washing steps, all samples were inoculated with a β-galactosidase-expressing E. coli strain and then incubated for 3 days at 37° C.

[3] = Modulation of the state of matter by pH shift using HCl and NaOH (Example 7); assay type: physicochemical
[4] = Modulation of the state of matter by pH shift using CO2 (Example 8); assay type: physicochemical
Excerpt: 1% (w/v) and 5% (w/v) 5-N-carboxamido-2-pyrrolidone-N-n-dodecyl propane-1,3-diamine (Py-C12) free base solutions in water were gassed with carbon dioxide to reduce the pH from 9.5 to 7. […] After degassing of the CO2-gassed solutions, Py-C12 precipitates due to the increasing pH in a time dependent manner (see FIG. 3, right panel).

[5] = Modulation of the state of matter by salt concentration (Example 9); assay type: physicochemical; details: 2% (w/v), pH 7 (HCl), NaCl 0.5 M to 3 M in water, room temperature
Excerpt: 2% (w/v) 5-N-carboxamido-2-pyrrolidone-N′-n-dodecyl propane-1,3-diamine (Py-C12) was adjusted with HCl to pH 7 and combined with different concentrations of NaCl ranging from 0.5 M to 3 M in water at room temperature. A clearly visible precipitate (white color) is observed at concentrations of 1.5 M or more (see FIG. 4).

[6] = system: β-galactosidase-expressing E. coli strain; test: Wash resistance and biocidal activity of Py-C12 treated silk fabric (Example 17); assay type: cell-based; details: treated with 1% (w/v) free base; washed 10, 20 and 30 times with water 15 min; E. coli 3 days at 37° C.
Experimental: (§1) In a first step, 1% (w/v) Py-C12 free base in water was warmed to 50° C. to obtain a liquid solution. After incubation with the Py-C12 solution, the samples were cooled to room temperature upon which the liquid Py-C12 was converted into a solid phase and thus immobilized to the material. After drying, samples were washed with water at room temperature 10, 20, and 30 times for 15 minutes each time. Thereafter, all samples were inoculated with a β-galactosidase-expressing E. coli strain and then incubated for 3 days at 37° C.

[7] = system: β-galactosidase-expressing E. coli strain; test: Wash resistance and biocidal activity of Py-C12 treated cotton fabric (Example 18); assay type: cell-based; details: treated with 1% (w/v) free base, E. coli 3 days at 37° C.
Experimental: as §1, with “10” for “10, 20,”

[8] = system: β-galactosidase-expressing E. coli strain; test: Wash resistance and biocidal activity of Py-C12 treated beech wood sheets (Example 19); assay type: cell-based; details: treated with 1% (w/v) free base; washed with water up to 30 washing steps, 15 min each; E. coli 4 days at 37° C.
Experimental: as §1, with “in water)” for “in water”, “incubation of beech wood sheets” for “incubation”, “temperature […]” for “temperature 10, 20,”, “[…]” for “and 30”, “for 4” for “for 3”

For `CCCCCCCCCCCCNCCCNC(=O)C1CCC(=O)N1` (stereo not shown) [Py-C12, 5-N-carboxamido-2-pyrrolidone-N′-n-dodecyl propane-1,3-diamine], the state of matter ([1]; free base 1% (w/v) in water, 36° C.) was “o”, the state of matter ([1]; free base 1% (w/v) in water, 38° C.) was “o” and the state of matter ([1]; free base 1% (w/v) in water, 40° C.) was “X”. The state of matter ([1]; free base 1% (w/v) in water, 42° C.) was “X”, the state of matter ([1]; free base 1% (w/v) in water, 44° C.) was “X” and the state of matter ([1]; free base 1% (w/v) in water, 46° C.) was “X”. The state of matter ([1]; free base 1% (w/v) in water, 48° C.) was “X”, the state of matter ([1]; free base 1% (w/v) in water, 50° C.) was “X” and the state of matter ([1]; free base 2.5% (w/v) in water, 36° C.) was “o”. The state of matter ([1]; free base 2.5% (w/v) in water, 38° C.) was “o”, the state of matter ([1]; free base 2.5% (w/v) in water, 40° C.) was “X” and the state of matter ([1]; free base 2.5% (w/v) in water, 42° C.) was “X”. For the same compound, the state of matter ([1]; free base 2.5% (w/v) in water, 44° C.) was “X”, the state of matter ([1]; free base 2.5% (w/v) in water, 46° C.) was “X” and the state of matter ([1]; free base 2.5% (w/v) in water, 48° C.) was “X”. For the same compound, the state of matter ([1]; free base 2.5% (w/v) in water, 50° C.) was “X”, the state of matter ([1]; free base 5% (w/v) in water, 36° C.) was “o” and the state of matter ([1]; free base 5% (w/v) in water, 38° C.) was “o”. For the same compound, the state of matter ([1]; free base 5% (w/v) in water, 40° C.) was “X”, the state of matter ([1]; free base 5% (w/v) in water, 42° C.) was “X” and the state of matter ([1]; free base 5% (w/v) in water, 44° C.) was “X”. For the same compound, the state of matter ([1]; free base 5% (w/v) in water, 46° C.) was “X”, the state of matter ([1]; free base 5% (w/v) in water, 48° C.) was “X” and the state of matter ([1]; free base 5% (w/v) in water, 50° C.) was “X”. The state of matter ([1]; free base 10% (w/v) in water, 36° C.) was “o”, the state of matter ([1]; free base 10% (w/v) in water, 38° C.) was “o” and the state of matter ([1]; free base 10% (w/v) in water, 40° C.) was “X”. For the same compound, the state of matter ([1]; free base 10% (w/v) in water, 42° C.) was “X”, the state of matter ([1]; free base 10% (w/v) in water, 44° C.) was “X” and the state of matter ([1]; free base 10% (w/v) in water, 46° C.) was “X”. For the same compound, the state of matter ([1]; free base 10% (w/v) in water, 48° C.) was “X”, the state of matter ([1]; free base 10% (w/v) in water, 50° C.) was “X” and the state of matter ([1]; free base 20% (w/v) in water, 36° C.) was “o”. For the same compound, the state of matter ([1]; free base 20% (w/v) in water, 38° C.) was “o”, the state of matter ([1]; free base 20% (w/v) in water, 40° C.) was “o” and the state of matter ([1]; free base 20% (w/v) in water, 42° C.) was “o”. The state of matter ([1]; free base 20% (w/v) in water, 44° C.) was “X”, the state of matter ([1]; free base 20% (w/v) in water, 46° C.) was “X” and the state of matter ([1]; free base 20% (w/v) in water, 48° C.) was “X”. The state of matter ([1]; free base 20% (w/v) in water, 50° C.) was “X”, the state of matter ([1]; free base 30% (w/v) in water, 36° C.) was “o” and the state of matter ([1]; free base 30% (w/v) in water, 38° C.) was “o”. The state of matter ([1]; free base 30% (w/v) in water, 40° C.) was “o”, the state of matter ([1]; free base 30% (w/v) in water, 42° C.) was “o” and the state of matter ([1]; free base 30% (w/v) in water, 44° C.) was “X”. For the same compound, the state of matter ([1]; free base 30% (w/v) in water, 46° C.) was “X”, the state of matter ([1]; free base 30% (w/v) in water, 48° C.) was “X” and the state of matter ([1]; free base 30% (w/v) in water, 50° C.) was “X”. The state of matter ([1]; free base 40% (w/v) in water, 36° C.) was “o”, the state of matter ([1]; free base 40% (w/v) in water, 38° C.) was “o” and the state of matter ([1]; free base 40% (w/v) in water, 40° C.) was “o”. The state of matter ([1]; free base 40% (w/v) in water, 42° C.) was “o”, the state of matter ([1]; free base 40% (w/v) in water, 44° C.) was “X” and the state of matter ([1]; free base 40% (w/v) in water, 46° C.) was “X”. The state of matter ([1]; free base 40% (w/v) in water, 48° C.) was “X”, the state of matter ([1]; free base 40% (w/v) in water, 50° C.) was “X” and the “biocidal effect of treated cotton textile after washing” value ([2]; alcoholic/acidic system: 8 washes 2-propanol/1 mN HCl and 8 with water) was “completely colonized”. For the same compound, the “biocidal effect of treated cotton textile after washing” value ([2]; aqueous system: water 20 h at 50° C., then 16 water washes at 37° C.) was “maintained its biocidal effect”, the solubility in water ([3]; 1% (w/v) free base adjusted with HCl to pH 7, room temperature) was “completely soluble” and the “state of matter after pH increase” value ([3]; 1% (w/v), NaOH added to increase pH above 9.0, time dependent) was “started to precipitate”. For the same compound, the solubility in water ([4]; 1% and 5% (w/v) free base gassed with CO2, pH from 9.5 to 7, room temperature) was “completely soluble”, the “state of matter after degassing” value ([4]; 1% and 5% (w/v), after degassing of CO2, increasing pH, time dependent) was “precipitates” and the “NaCl concentration at which a clearly visible precipitate is observed” value [5] was at least 1.5 M. For the same compound, the “bacterial growth on treated silk fabric after washing” value [6] was “Blue coloured bacteria only appear in control sample”, the “bacterial growth on treated cotton fabric after washing” value ([7]; washed 10 times with water 15 min) was “doesn't show any bacterial growth” and the “bacterial growth on treated cotton fabric after washing” value ([7]; washed 30 times with water 15 min) was “few spots”. For the same compound, the “bacterial growth on treated beech wood sheets after washing” value [8] was “Blue coloured bacteria only appear on control sample”.
